Experimental data taken from the NIST ThermoML archive (doi:10.1021/je101173w).

Assays:
[1] = 101.33 kPa, Liquid; for viscosity: Capillary tube (Ostwald / Ubbelohde) method; for mass density: Vibrating tube method
[2] = mn = molality of the nth substance listed, in mol/kg; settings: 101 kPa, Liquid; for viscosity: Capillary tube (Ostwald / Ubbelohde) method; for mass density: Vibrating tube method

CCO [ethanol]
[1]
Settings | mass density [kg/m3] | viscosity [mPa·s]
293.15 K | 790.08 | 1.211
303.15 K | 781 | 0.9977
313.15 K | 772.31 | 0.8319
323.15 K | 763.35 | 0.6876
333.15 K | 754.2 | 0.5806

Oc1cccc(O)c1 [1,3-benzenediol] + CCO
[2]
Settings | mass density, m1 = 1.634 [kg/m3] | mass density, m1 = 3.537 [kg/m3] | mass density, m1 = 5.77 [kg/m3] | mass density, m1 = 8.441 [kg/m3] | mass density, m1 = 11.69 [kg/m3] | viscosity, m1 = 1.634 [mPa·s] | viscosity, m1 = 3.537 [mPa·s] | viscosity, m1 = 5.77 [mPa·s] | viscosity, m1 = 8.441 [mPa·s] | viscosity, m1 = 11.69 [mPa·s]
293.15 K | 847.02 | 897.16 | 941.64 | 981.15 | 1017.03 | 2.136 | 3.742 | 6.373 | 11.33 | 21.33
303.15 K | 838.53 | 889.03 | 933.72 | 973.42 | 1007.47 | 1.707 | 3.078 | 4.872 | 8.487 | 15.56
313.15 K | 830.12 | 880.71 | 925.87 | 965.64 | 1002.06 | 1.421 | 2.294 | 3.648 | 5.94 | 9.505
323.15 K | 821.65 | 872.63 | 918.18 | 957.95 | 994.49 | 1.265 | 1.947 | 2.864 | 4.295 | 6.578

Oc1cccc(O)c1 [1,3-benzenediol] + CCCO
[2]
Settings | mass density, 293.15 K [kg/m3] | mass density, 303.15 K [kg/m3] | mass density, 313.15 K [kg/m3] | mass density, 323.15 K [kg/m3] | mass density, 333.15 K [kg/m3] | viscosity, 293.15 K [mPa·s] | viscosity, 303.15 K [mPa·s] | viscosity, 313.15 K [mPa·s] | viscosity, 323.15 K [mPa·s] | viscosity, 333.15 K [mPa·s]
m1 = 1.252 | 846.41 | 838.23 | 830.12 | 821.85 | 813.35 | 3.605 | 2.74 | 2.133 | 1.675 | 1.374
m1 = 2.709 | 886.87 | 878.7 | 870.62 | 862.49 | 854.18 | 6.043 | 4.375 | 3.292 | 2.465 | 1.952
m1 = 4.423 | 924.61 | 916.62 | 908.69 | 900.65 | 892.48 | 10.37 | 7.225 | 5.137 | 3.736 | 2.862
m1 = 6.471 | 960.5 | 952.55 | 944.74 | 936.83 | 928.84 | 18.52 | 12.05 | 8.179 | 5.696 | 4.195
m1 = 8.959 | 994.1 | 986.39 | 978.72 | 970.97 | 963.1 | 33.22 | 20.29 | 12.82 | 8.199 | 6.412

Oc1cccc(O)c1 [1,3-benzenediol] + O
[2]
Settings | mass density, 293.15 K [kg/m3] | mass density, 303.15 K [kg/m3] | mass density, 313.15 K [kg/m3] | mass density, 323.15 K [kg/m3] | mass density, 333.15 K [kg/m3] | viscosity, 293.15 K [mPa·s] | viscosity, 303.15 K [mPa·s] | viscosity, 313.15 K [mPa·s] | viscosity, 323.15 K [mPa·s] | viscosity, 333.15 K [mPa·s]
m1 = 2.361 | 1041.62 | 1037.63 | 1032.94 | 1027.74 | 1021.98 | 1.615 | 1.25 | 1.012 | 0.8329 | 0.6974
m1 = 4.819 | 1073.42 | 1068.64 | 1062.96 | 1057.26 | 1050.76 | 2.481 | 1.874 | 1.474 | 1.181 | 0.9741
m1 = 7.567 | 1099.32 | 1093.72 | 1087.57 | 1081.27 | 1074.55 | 3.681 | 2.72 | 2.089 | 1.629 | 1.311
m1 = 10.59 | 1120.13 | 1113.97 | 1107.55 | 1100.86 | 1094.26 | 5.347 | 3.844 | 2.867 | 2.193 | 1.727
m1 = 13.9 | 1137.42 | 1130.96 | 1124.23 | 1117.62 | 1110.53 | 7.61 | 5.36 | 3.9 | 2.909 | 2.247

Oc1cccc(O)c1 [1,3-benzenediol] + CCCCO
[2]
Settings | mass density, 293.15 K [kg/m3] | mass density, 303.15 K [kg/m3] | mass density, 313.15 K [kg/m3] | mass density, 323.15 K [kg/m3] | mass density, 333.15 K [kg/m3] | viscosity, 293.15 K [mPa·s] | viscosity, 303.15 K [mPa·s] | viscosity, 313.15 K [mPa·s] | viscosity, 323.15 K [mPa·s] | viscosity, 333.15 K [mPa·s]
m1 = 1.016 | 844.32 | 836.69 | 828.92 | 821.01 | 812.92 | 4.518 | 3.357 | 2.54 | 1.972 | 1.674
m1 = 2.196 | 878.29 | 870.07 | 862.36 | 854.51 | 846.52 | 7.007 | 5.06 | 3.71 | 2.809 | 2.33
m1 = 3.586 | 910.51 | 902.98 | 895.33 | 887.57 | 879.68 | 11.56 | 8.021 | 5.552 | 4.091 | 3.274
m1 = 5.247 | 942.6 | 935.1 | 927.53 | 919.86 | 912.09 | 19.75 | 12.64 | 8.601 | 6.096 | 4.84
m1 = 7.265 | 974.13 | 966.7 | 959.2 | 951.6 | 943.92 | 34.34 | 20.69 | 13.18 | 8.804 | 6.635
